Measurements reported in patent US5153194A, “Thienocycloheptapyridazine compounds and their pharmaceutical use” (Yoshitomi Pharmaceutical Industries, Ltd., priority 1988, dated 1992).

Key:
[1] = tested on: tonic convulsion induced by (+) bicuculline; test: Anti-bicuculline action (bicuculline-induced tonic convulsion); assay type: in vivo, mouse (male ddY); conditions: Mus musculus; oral, 1 hour before (+) bicuculline 0.6 mg/kg i.v.; tonic convulsion within 5 minutes
Description: The anti-bicuculline action test was carried out in accordance with the method described in Life Science, vol. 21, 1779 (1977).
Male ddY mice weighing 20-28 g, 7-14 animals per group, were used. One hour after the oral administration of the test compounds, (+) bicuculline was intravenously administered at the dosage of 0.6 mg/kg, and 50% effective concentration (ED50) was estimated by examining whether tonic convulsion within 5 minutes was caused or not.

[2] = target: benzodiazepine (BZP) receptors; test: Displacement ability for benzodiazepine (displacement of tritiated diazepam); assay type: binding, rat (male Wistar; conditions: displacement of tritiated diazepam (2 nM), rat cerebral cortex synaptosomes, 0° C., 20 minutes, pH 7.4; read-out: Affinity to BZP Receptors, Ki
Description: The experiment for specific affinity to benzodiazepine receptors was carried out in accordance with the method described in Life Science, vol. 20, 2101 (1977).
The crude cynaptosome fraction was isolated from the cerebral cortex of male Wistar rats aged 9-10 weeks, and was suspended in 50 mM Tris-hydrochloric acid buffer solution (pH 7.4) containing 120 mM sodium chloride and 5 mM potassium chloride. These suspensions were used for the experiment.
The test compounds in several different concentrations and tritiated diazepam (in final concentration of 2 nM) were added to the synaptosome suspensions, and the mixtures were incubated at 0° C. for 20 minutes. These suspensions were filtered with Whatman GF/B glassfiber filters. After the filters were washed with the above-mentioned buffer solution, the radioactivity left on the filters was measured with the use of a liquid scintillation counter.
Specific binding was determined by subtracting binding in the presence of 10^-6 M unlabelled diazepam from total binding.
According to the foregoing experimental method, the binding force to benzodiazepine receptors of the compound of the present invention is evaluated from its displacement ability for tritiated diazepam at its binding site, which is represented by Ki value (nM).

ddY mice = test: Acute toxicity; assay type: in vivo, mouse (male ddY); conditions: 5 days
Source text: Five male ddY mice were used per group.

[3] = tested on: amnesia-induced mice (electroconvulsive shock); test: Action on experimental amnesia (ECS-induced amnesia, step-through passive avoidance); assay type: in vivo, mouse (male ddY); conditions: 2.5 mg/kg (i.p.) or more, 30 minutes before acquisition trial; retention test 24 hours after
Description: Twenty male ddY mice were used per group to investigate the action of the test compounds on learning and memory ability of amnesia-induced mice by observing a step-through passive avoidance reflex. Amnesia-induced animals were prepared by applying electroconvulsive shock (ECS) soon after the acquisition trial and the retention test was carried out 24 hours after the acquisition trial. Test compounds were administered intraperitoneally (i.p.) 30 minutes before the acquisition trial.

| SMILES | ED50 [1] | Ki [2] | survival, acute toxicity, intraperitoneal (ddY mice; 300 mg/kg i.p., five mice) | survival, acute toxicity, oral (ddY mice; 1000 mg/kg oral) | latency time in the trial of the retention test [3] |
| --- | --- | --- | --- | --- | --- |
| Cc1cc2c(s1)CCCC1CC(=O)N(c3ccc(Cl)cc3)N=C21 (stereo not shown) [Example 1, 2-(4-chlorophenyl)-9-methyl-2,4,4a,5,6,7-hexahydro-3H-thieno[2',3':6,7]cyclohepta[1,2-c]pyridazin-3-one] | 8.1 mg/kg | 4.8 nM |  |  |  |
| COc1ccc(N2N=C3c4cc(C)sc4CCCC3CC2=O)cc1 (stereo not shown) [Example 4, 2-(4-methoxyphenyl)-9-methyl-2,4,4a,5,6,7-hexahydro-3H-thieno[2',3':6,7]cyclohepta[1,2-c]pyridazin-3-one] |  | 1.1 nM | all mice survived for 5 days | survived for 5 days | significantly prolonged the latency time |
| Cc1cc2c(s1)CCCc1cc(=O)n(-c3ccc(Cl)cc3)nc1-2 [Example 5, 2-(4-chlorophenyl)-2,5,6,7-tetrahydro-9-methyl-3H-thieno[2',3':6,7]cyclohepta[1,2-c]pyridazin-3-one] | 9.8 mg/kg |  |  |  |  |
